Laboratory results reported in ChEMBL document CHEMBL1127272, “2-Aryl-1-azabicyclo[2.2.2]octanes as novel nonpeptide substance P antagonists” (Bioorg Med Chem Lett, 1994).

What was measured:
Substance-P receptor [1] = target: T1, Substance-P receptor (Homo sapiens, UniProt P25103); test: Inhibitory concentration for displacement of [3H]-Substance P (SP) in human IM-9 cells; assay type: cell-based
Substance-P receptor [2] = target: T1, Substance-P receptor; test: Tested for Tachykinin receptor 1 antagonistic activity in dog isolated carotid artery(DCA) system at a concentration of 5*10e-6 M; assay type: functional; conditions: Canis lupus familiaris; target entry is the homologue from another species

T1 sequence (P25103 whole entry): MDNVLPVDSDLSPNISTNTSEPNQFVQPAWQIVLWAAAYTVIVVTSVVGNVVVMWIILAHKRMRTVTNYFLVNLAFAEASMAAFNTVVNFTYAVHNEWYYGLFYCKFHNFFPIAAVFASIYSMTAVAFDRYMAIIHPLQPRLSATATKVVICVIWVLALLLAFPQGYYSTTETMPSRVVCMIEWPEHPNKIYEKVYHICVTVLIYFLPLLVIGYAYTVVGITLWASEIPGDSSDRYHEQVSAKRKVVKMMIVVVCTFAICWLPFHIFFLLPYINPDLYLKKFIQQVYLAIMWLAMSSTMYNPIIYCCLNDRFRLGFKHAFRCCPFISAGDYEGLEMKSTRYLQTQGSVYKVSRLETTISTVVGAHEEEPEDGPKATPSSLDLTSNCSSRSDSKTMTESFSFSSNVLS

Compound	IC50 (Substance-P receptor [1]) [nM]	pKB (Substance-P receptor [2])
COc1ccccc1CN[C@H]1C2CCN(CC2)[C@H]1c1cccc(Cl)c1	20	–
COc1ccc(CN[C@@H]2C3CCN(CC3)[C@@H]2c2cccc(Cl)c2)c(OC)c1 (single isomer, unassigned)	39	–
COc1ccc(CN[C@H]2C3CCN(CC3)[C@H]2c2cccc(Cl)c2)c(OC)c1	–	7
COc1ccccc1CN[C@@H]1C2CCN(CC2)[C@H]1c1ccccc1	700	–
COc1ccccc1CN[C@@H]1C2CCN(CC2)[C@H]1c1cccc(Cl)c1	240	–
Clc1cccc([C@H]2[C@@H](NCc3ccccc3Cl)C3CCN2CC3)c1	230	–
COc1ccccc1CN[C@H]1C2CCN(CC2)[C@H]1c1ccccc1	140	–
COc1cccc([C@H]2[C@@H](NCc3ccccc3OC)C3CCN2CC3)c1	160	–
COc1ccc(CN[C@H]2C3CCN(CC3)[C@@H]2c2cccc(Cl)c2)c(OC)c1	350	–
